Test [1] has as its target T1, HIV-1 IN LEDGF/p75-dependent activity (Human immunodeficiency virus type 1 group M subtype B, UniProt P04585).
T1 construct: Recombinant His and FLAG-IN proteins and His and FLAG-LEDGF proteins were expressed in Escherichia coli strain BL21 (DE3); His or FLAG (separate preparations); made in house; host or cells: Escherichia coli BL21 (DE3)
Nature of the test: HTRF LEDGF-dependent IN assay. The format is biochemical. The conditions noted are these: for IC50: recombinant IN with LEDGF/p75, HTRF; for IN inhibitory activity (in words): LEDGF/p75-dependent IN activity. As to the method: Recombinant His and FLAG-IN proteins and His and FLAG-LEDGF proteins were expressed in Escherichia coli strain BL21 (DE3) and purified, as previously described.
IN activity in the presence of recombinant LEDGF/p75 protein were determined as described before. IN was pre-incubated in reaction buffer containing 20 mM HEPES pH 7.5, 1 mM DTT, 1% glycerol, 20 mM MgCl2, 0.05% Brij-35 and 0.1 mg/mL BSA with increasing concentration of compounds for 1 h at room temperature. After the addition to this mixture of 9 nM DNA donor substrate, 50 nM DNA acceptor substrate and 50 nM LEDGF/p75 protein (when required), the reaction was incubated at 37 °C for 90 min. The addition of 4 nM of Europium–Streptavidin to the reaction mixture provided the HTRF signal, which was recorded using a Perkin Elmer (Waltham, MA, USA) Victor 3 plate reader with 314 nm for excitation wavelength and 668 and 620 nm for the wavelength of the acceptor and the donor substrates emission, respectively.
Background: Time-resolved FRET reads energy transfer from a long-lived donor to a nearby acceptor.

Test [2] addresses T2, HIV-1 RT-RNase H (Human immunodeficiency virus type 1 group M subtype B, UniProt P04585).
T2 construct: preparation and purification of wild type p66/p51 HIV-1 RT; made in house
Further details: method as in PMID 23631411. Particulars: cited from earlier work.

The target of test [3] is T2, HIV-1 RT-RNase H. The test is described as follows: RNase H inhibitory assay (fluorescent RNA/DNA hybrid). It is filed as biochemical. Particulars: for IC50: wild type p66/p51 HIV-1 RT. As to the method: The previously reported procedure was used for preparation and purification of wild type p66/p51 HIV-1 RT. Enzyme was stored in a 50% glycerol-containing buffer at −20 °C [32, 46]. An 18-nt 3′-fluorescein-labeled RNA annealed to a complementary 18-nt 5′-dabsyl-labeled DNA was used to determine IC50 values, following a previously described procedure. In brief, 1 μL of each inhibitor dissolved in DMSO was added to a 96-well plate, followed by 10 μL of the proper RT ([…]) in reaction buffer. The addition of 10 μL of RNA/DNA hybrid (2.5 μM) initiated the hydrolysis. Then, 50 mM Tris-HCl, pH 8.0, 60 mM KCl, 10 mM MgCl2, 1% DMSO, 150−800 ng of RT, 250 nM substrate, and increasing concentrations of inhibitor were chosen as final assay conditions. As negative control, wells containing only DMSO were used. Subsequently, the plates were incubated in a Spectramax Gemini EM fluorescence spectrometer for 10 min at 37 °C, measuring the fluorescence (λex = 485 nm; λem = 520 nm) at 1 min intervals in order to determine the linear initial rates in the presence (vi) and absence (vo) of inhibitor. Percent inhibition was assessed as 100(vo − vi)/vo and plotted against log[I]. Prism5 (GraphPad Software 5.0) was used to calculate the IC50 values. All assays were carried out in triplicate.

Test [4] concerns the target T1, HIV-1 IN LEDGF/p75-dependent activity. More on the design: method as in PMID 23631411. The conditions noted are these: first experiment, 3,4-catechol analogue of 5; cited from earlier work.

These results are taken from PMC10537185, “Dihydroxyphenyl- and Heteroaromatic-Based Thienopyrimidinones to Tackle HIV-1 LEDGF/p75-Dependent IN Activity” (Molecules, 2023).

Read-outs that look alike come from different tables or passages of the source.

The term IC50 denotes the concentration that inhibits the measured activity by half.

Take `Cc1sc2nc(-c3c[nH]c4ccccc34)[nH]c(=O)c2c1C` [Compound 26]: the values for the IC50 (in test [1]; on HIV-1 RT-RNase H [2]) were 2.85 ± 0.85 µM and 0.48 ± 0.6 µM, respectively.

Take `O=c1[nH]c(-c2ccc(O)cc2O)nc2sc3c(c12)CCCCC3` [Compound 16]: in test [1], the IC50 stood at 10 ± 1 µM. As to `Cc1sc2nc(-c3ccco3)[nH]c(=O)c2c1C` [Compound 21, 2-(furan-2-yl)-5,6-dimethylthieno[2,3-d]pyrimidin-4(3H)-one], the IC50 was 5.75 ± 0.85 µM in test [1] and 2.5 ± 0.1 µM on HIV-1 RT-RNase H [3]. In the case of `Cc1sc2nc(-c3cccs3)[nH]c(=O)c2c1C` [Compound 24, 5,6-dimethyl-2-(thiophen-2-yl)thieno[2,3-d]pyrimidin-4(3H)-one], in test [1], the “IN inhibitory activity (in words)” value is “inactive” and the IC50 is > 50 µM. Further, the IC50 against HIV-1 RT-RNase H [3] worked out at 8.2 ± 1.3 µM. Consider `Cc1sc2nc(-c3ccc([N+](=O)[O-])o3)[nH]c(=O)c2c1C` [Compound 23], for which the half-maximal inhibitory concentration (IC50) in test [1] is 4.6 ± 0.82 µM; at HIV-1 RT-RNase H [2], 16.9 ± 1.7 µM. For `Cc1sc2nc(-c3cc(O)cc(O)c3)[nH]c(=O)c2c1C` [Compound 14, 2-(3,5-dihydroxyphenyl)-5,6-dimethylthieno[2,3-d]pyrimidin-4(3H)-one], the IC50 in test [1] is 3.7 ± 0.73 µM. As to `Cc1sc2nc(-c3ccc([N+](=O)[O-])s3)[nH]c(=O)c2c1C` [Compound 25, 5,6-dimethyl-2-(5-nitrothiophen-2-yl)thieno[2,3-d]pyrimidin-4(3H)-one], the results for the IC50 (in test [1]; against HIV-1 RT-RNase H [3]) were 3.2 ± 0.8 µM and > 50 µM, respectively. In addition, the “RNase H inhibitory activity (in words)” value on HIV-1 RT-RNase H [3] was “completely inactive”. In the case of `Cc1sc2nc(-c3ccc[nH]3)[nH]c(=O)c2c1C` [Compound 27, 5,6-dimethyl-2-(1H-pyrrol-2-yl)thieno[2,3-d]pyrimidin-4(3H)-one], in test [1], the “IN inhibitory activity (in words)” value was “completely IN inactive” and the IC50 is > 50 µM. On HIV-1 RT-RNase H [3], the IC50 stood at 35.3 ± 1.5 µM. Turning to `O=c1[nH]c(-c2ccc(O)c(O)c2)nc2sc3c(c12)CCCCC3` [Compound 9], the IC50 was 18.3 ± 2.3 µM in test [1] and 0.29 ± 0.11 µM on HIV-1 RT-RNase H [2]. For `Cc1sc2nc(-c3ccc(O)cc3O)[nH]c(=O)c2c1C` [Compound 12, 2-(2,4-dihydroxyphenyl)-5,6-dimethylthieno[2,3-d]pyrimidin-4(3H)-one], the IC50 in test [1] was determined as 22.3 ± 1.57 µM. Same read-out and setting: in the case of `Cc1sc2nc(-c3cc(O)ccc3O)[nH]c(=O)c2c1C` [Compound 13] it was 85 ± 6 µM.

Take `CCCc1c(C)sc2nc(-c3ccc(O)c(O)c3)[nH]c(=O)c12` [Compound 29]: the IC50 in test [4] was > 50 µM. Regarding `O=c1[nH]c(-c2cc(O)cc(O)c2)nc2sc3c(c12)CCCCC3` [Compound 18], the IC50 in test [1] was 3.37 ± 0.48 µM. Same read-out and setting: in the case of `O=c1[nH]c(-c2cccc(O)c2O)nc2sc3c(c12)CCCCC3` [Compound 15] it was 24 ± 1 µM. `Cc1sc2nc(-c3cccn3C)[nH]c(=O)c2c1C` [Compound 28, 5,6-dimethyl-2-(1-methyl-1H-pyrrol-2-yl)thieno[2,3-d]pyrimidin-4(3H)-one]: the “IN inhibitory activity (in words)” value in test [1] is “completely IN inactive”. Moreover, the IC50 in test [1] was > 50 µM; at HIV-1 RT-RNase H [3], 14.8 ± 0.6 µM. Consider `O=c1[nH]c(-c2cc(O)ccc2O)nc2sc3c(c12)CCCCC3` [Compound 17], for which the IC50 in test [1] stood at 5.65 ± 0.15 µM. Same read-out and setting: with `CC1CCCc2sc3nc(-c4ccc(O)c(O)c4)[nH]c(=O)c3c21` (stereo not shown) [Compound 19, 2-(3,4-dihydroxyphenyl)-5-methyl-5,6,7,8-tetrahydrobenzo[4,5]thieno[2,3-d]pyrimidin-4(3H)-one] the figure was 5.9 ± 0.5 µM. In the case of `CC(C)Cc1csc2nc(-c3ccc(O)c(O)c3)[nH]c(=O)c12` [Compound 20, 2-(3,4-dihydroxyphenyl)-5-isobutylthieno[2,3-d]pyrimidin-4(3H)-one], the IC50 in test [1] is 8.5 ± 2.5 µM.

On to `Cc1ccc(-c2nc3sc(C)c(C)c3c(=O)[nH]2)o1` [Compound 22, 5,6-dimethyl-2-(5-methylfuran-2-yl)thieno[2,3-d]pyrimidin-4(3H)-one], for which the IC50 in test [1] was 8.75 ± 0.35 µM; against HIV-1 RT-RNase H [3] it was 14.4 ± 0.2 µM. As to `Cc1sc2nc(-c3ccc(O)c(O)c3)[nH]c(=O)c2c1C` [Compound 8, 2-(3,4-dihydroxyphenyl)-5,6-dimethylthieno[2,3-d]pyrimidin-4(3H)-one], the IC50 in test [1] was 24.4 ± 2.6 µM; against HIV-1 RT-RNase H [3] it was 0.26 ± 0.01 µM; on HIV-1 RT-RNase H [2], 0.26 ± 0.01 µM. As to `Cc1sc2nc(-c3ccccc3O)[nH]c(=O)c2c1C` [Compound 11, 2-(2-hydroxyphenyl)-5,6-dimethylthieno[2,3-d]pyrimidin-4(3H)-one], in test [1], the IC50 was found to be 22 ± 2.8 µM.

Take `Cc1sc2nc(-c3cccc(O)c3O)[nH]c(=O)c2c1C` [Compound 10, 2-(2,3-dihydroxyphenyl)-5,6-dimethylthieno[2,3-d]pyrimidin-4(3H)-one]: the IC50 in test [1] was 12.6 ± 1.29 µM.
